Measurements published in article PMC6277767, “Broad and Region-Specific Impacts of the Synthetic Cannabinoid CP 55,940 in Adolescent and Adult Female Mouse Brains” (Frontiers in Molecular Neuroscience, 2018).

Test system: CD1 female mouse brain lipidome
Experiment: Brain-region lipid levels (HPLC/MS/MS lipidomics) 2 h after single i.p. 3 mg/kg CP 55,940 vs vehicle
Type: in vivo
Protocol: The Bloomington Institutional Animal Care and Use Committee of Indiana University reviewed and approved the animal procedures. Female mice from the CD1 strain were utilized to match our study examining THC’s effects on the brain lipidome ([Leishman et al., 2018]). Mice were given a single i.p. injection of either 3 mg/kg CP or 1:1:18 cremophor:ethanol:saline vehicle (please refer to the section “3 mg/kg CP Is Relevant for Synthetic Cannabinoid Abuse and Has Stronger Effects on the Female Mouse Brain Lipidome During Adolescence” for a justification of dose and use of female mice). Three different age groups were given injections: PND 35 and PND 50 adolescents, and adult mice (PND 113). At least eight mice in each age group received CP and at least eight received vehicle. Matching the THC study time course ([Leishman et al., 2018]), mice were sacrificed via rapid decapitation 2 h after injection. Brains were immediately removed and flash-frozen in liquid nitrogen, and then stored at -80°C until dissections were performed. Brains were dissected on an ice-cold dissection plate into the following regions: STR, HIPP, CER, THAL, CTX, HYP, MID, and STEM. These abbreviations for these brain areas will be used exclusively when discussing the results generated by these specific dissections. Each dissected area was immediately placed in liquid nitrogen and then stored at -80°C until used for lipid extraction.
Tissue extracts were performed as previously described ([Bradshaw et al., 2006]; [Stuart et al., 2013]; [Raboune et al., 2014]; [Leishman et al., 2016a],[b], [2017], [2018]). First, samples were shock frozen in liquid nitrogen, weighed, and transferred to a centrifuge tube. The mass of the largest sample was multiplied by 50 to determine how many milliliters of HPLC-grade methanol (Fisher, Fair Lawn, NJ, United States) to add. Then, samples were spiked with 500 pmol deuterium-labeled NAGly (d8NAGly; Cayman Chemical, Ann Arbor, MI, United States). Samples were placed on ice in darkness for 2 h then individually homogenized and centrifuged at 19,000 × g for 20 min at 20°C. Supernatants were diluted with HPLC water (purified in house) to make a solution of 75% water, 25% supernatant. Lipids were partially purified on C18 solid phase extraction columns (Agilent, Palo Alto, CA, United States). A series of four elutions with 1.5 mL of 60%, 75%, 85%, and 100% methanol were collected ([Stuart et al., 2013]; [Leishman et al., 2016a],[b], [2018]).
As previously described ([Bradshaw et al., 2006]; [Tan et al., 2006]; [Smoum et al., 2010]; [Stuart et al., 2013]; [Tortoriello et al., 2013]; [Raboune et al., 2014]; [Leishman et al., 2016a],[b], [2017], [2018]), samples were analyzed using an Applied Biosystems API 3000 triple quadrupole mass spectrometer with electrospray ionization (Foster City, CA, United States). Using an Agilent XDB-C18 reversed phase analytical column and optimized mobile phase gradients, 20 μL from each elution were chromatographed. Two Shimadzu 10ADvp pumps (Columbia, MD, United States) provided the pressure for gradient elution. Mobile phase A: 20% methanol, 80% water (v/v) and 1 mM ammonium acetate (Sigma, St. Louis, MO, United States). Mobile phase B: 100% methanol, 1 mM ammonium acetate. Every method run began with 0% mobile phase B, reached 100% mobile phase B flowing at 0.2 mL/min, and gradually returned to 0% mobile phase B.
This screening library will be referred to as the lipidome when discussing data from this study. HPLC/MS/MS data were analyzed using Analyst software (Applied Biosystems) ([Bradshaw et al., 2006]; [Tan et al., 2006]; [Stuart et al., 2013]; [Tortoriello et al., 2013]; [Raboune et al., 2014]; [Leishman et al., 2016a],[b], [2017], [2018]). Chromatograms (Supplementary Figure 3) were generated by determining the retention time of analytes from the analytical column with a [M-1] or [M+1] parent peak and a fragmentation peak corresponding to the programmed values. […]

[1] = PND 35 midbrain, 3mg/kg, one-way ANOVA

`CCCCCCC(C)(C)c1ccc([C@@H]2C[C@H](O)CC[C@H]2CCCO)c(O)c1` [CP 55,940] was tested, and the “N-docosahexaenoyl methionine: Magnitude (x Veh level)” value (PND 35 midbrain, 3mg/kg) was 0.77 x Veh level, the “N-docosahexaenoyl serine: Magnitude (x Veh level)” value (PND 35 midbrain, 3mg/kg) was 0.77 x Veh level and the “N-docosahexaenoyl tyrosine: Magnitude (x Veh level)” value (PND 35 midbrain, 3mg/kg) was 0.79 x Veh level. For the same compound, the “N-docosahexaenoyl valine: Magnitude (x Veh level)” value (PND 35 midbrain, 3mg/kg) was 1.67 x Veh level, the “N-linoleoyl ethanolamine: Magnitude (x Veh level)” value (PND 35 midbrain, 3mg/kg) was 1.24 x Veh level and the “N-oleoyl GABA: Magnitude (x Veh level)” value (PND 35 midbrain, 3mg/kg) was 0.81 x Veh level. For the same compound, the “N-oleoyl ethanolamine: Magnitude (x Veh level)” value (PND 35 midbrain, 3mg/kg) was 0.85 x Veh level, the “N-oleoyl phenylalanine: Magnitude (x Veh level)” value (PND 35 midbrain, 3mg/kg) was 1.11 x Veh level and the “N-oleoyl valine: Magnitude (x Veh level)” value (PND 35 midbrain, 3mg/kg) was 1.48 x Veh level. For the same compound, the “N-palmitoyl leucine: Magnitude (x Veh level)” value (PND 35 midbrain, 3mg/kg) was 1.40 x Veh level, the “N-palmitoyl phenylalanine: Magnitude (x Veh level)” value (PND 35 midbrain, 3mg/kg) was 1.31 x Veh level and the “N-palmitoyl valine: Magnitude (x Veh level)” value (PND 35 midbrain, 3mg/kg) was 1.83 x Veh level. For the same compound, the “N-stearoyl methionine: Magnitude (x Veh level)” value (PND 35 midbrain, 3mg/kg) was 1.15 x Veh level, the “N-stearoyl tyrosine: Magnitude (x Veh level)” value (PND 35 midbrain, 3mg/kg) was 0.82 x Veh level and the “N-stearoyl valine: Magnitude (x Veh level)” value (PND 35 midbrain, 3mg/kg) was 1.40 x Veh level. The “PGE2: Magnitude (x Veh level)” value (PND 35 midbrain, 3mg/kg) was 1.15 x Veh level, the “PGF2α: Magnitude (x Veh level)” value (PND 35 midbrain, 3mg/kg) was 1.22 x Veh level and the “phoshoLEA: Magnitude (x Veh level)” value (PND 35 midbrain, 3mg/kg) was 1.41 x Veh level. The “2-linoleoyl glycerol: Direction (rel to Veh)” value [1] was “↓”, the “6-ketoPGF1α: Direction (rel to Veh)” value [1] was “↓” and the “Arachidonic acid: Direction (rel to Veh)” value [1] was “↓”. The “N-arachidonoyl GABA: Direction (rel to Veh)” value [1] was “↓”, the “N-arachidonoyl alanine: Direction (rel to Veh)” value [1] was “↓” and the “N-arachidonoyl glycine: Direction (rel to Veh)” value [1] was “↓”. For the same compound, the “N-arachidonoyl serine: Direction (rel to Veh)” value [1] was “↓”, the “N-arachidonoyl taurine: Direction (rel to Veh)” value [1] was “↓” and the “N-arachidonoyl tyrosine: Direction (rel to Veh)” value [1] was “↓”. For the same compound, the “N-docosahexaenoyl GABA: Direction (rel to Veh)” value [1] was “↓”, the “N-docosahexaenoyl alanine: Direction (rel to Veh)” value [1] was “↓” and the “N-docosahexaenoyl glycine: Direction (rel to Veh)” value [1] was “↓”. The “N-docosahexaenoyl leucine: Direction (rel to Veh)” value [1] was “↑”, the “N-docosahexaenoyl methionine: Direction (rel to Veh)” value [1] was “↓” and the “N-docosahexaenoyl serine: Direction (rel to Veh)” value [1] was “↓”. The “N-docosahexaenoyl tyrosine: Direction (rel to Veh)” value [1] was “↓”, the “N-docosahexaenoyl valine: Direction (rel to Veh)” value [1] was “↑” and the “N-linoleoyl ethanolamine: Direction (rel to Veh)” value [1] was “↑”. The “N-oleoyl GABA: Direction (rel to Veh)” value [1] was “↓”, the “N-oleoyl ethanolamine: Direction (rel to Veh)” value [1] was “↓” and the “N-oleoyl phenylalanine: Direction (rel to Veh)” value [1] was “↑”. For the same compound, the “N-oleoyl valine: Direction (rel to Veh)” value [1] was “↑”, the “N-palmitoyl leucine: Direction (rel to Veh)” value [1] was “↑” and the “N-palmitoyl phenylalanine: Direction (rel to Veh)” value [1] was “↑”. For the same compound, the “N-palmitoyl valine: Direction (rel to Veh)” value [1] was “↑”, the “N-stearoyl methionine: Direction (rel to Veh)” value [1] was “↑” and the “N-stearoyl tyrosine: Direction (rel to Veh)” value [1] was “↓”. For the same compound, the “N-stearoyl valine: Direction (rel to Veh)” value [1] was “↑”, the “PGE2: Direction (rel to Veh)” value [1] was “↑” and the “PGF2α: Direction (rel to Veh)” value [1] was “↑”. The “phoshoLEA: Direction (rel to Veh)” value [1] was “↑”, the 2-arachidonoyl-sn-glycerol mean level (PND 35 striatum) was 8.26E-11 moles per gram and the 2-linoleoyl-sn-glycerol mean level (PND 35 striatum) was 6.79E-11 moles per gram. It also gave a 2-oleoyl-sn-glycerol mean level (PND 35 striatum) of 6.52E-10 moles per gram, a 2-palmitoyl-sn-glycerol mean level (PND 35 striatum) of 3.66E-10 moles per gram and a 6-ketoPGF1α mean level (PND 35 striatum) of 5.31E-12 moles per gram. The “Arachidonic acid mean level” value (PND 35 striatum) was 1.87E-09 moles per gram, the “Linoleic acid mean level” value (PND 35 striatum) was 4.78E-10 moles per gram and the “N- stearoyl valine mean level” value (PND 35 striatum) was 4.54E-13 moles per gram. For the same compound, the “N-arachidonoyl GABA mean level” value (PND 35 striatum) was 7.34E-12 moles per gram, the “N-arachidonoyl alanine mean level” value (PND 35 striatum) was 7.95E-12 moles per gram and the “N-arachidonoyl ethanolamine mean level” value (PND 35 striatum) was 1.25E-11 moles per gram. The “N-arachidonoyl glycine mean level” value (PND 35 striatum) was 2.49E-11 moles per gram, the “N-arachidonoyl phenylalanine mean level” value (PND 35 striatum) was 5.08E-13 moles per gram and the “N-arachidonoyl serine mean level” value (PND 35 striatum) was 2.14E-12 moles per gram. The “N-arachidonoyl taurine mean level” value (PND 35 striatum) was 4.32E-11 moles per gram, the “N-arachidonoyl tyrosine mean level” value (PND 35 striatum) was 3.18E-13 moles per gram and the “N-docosahexaenoyl GABA mean level” value (PND 35 striatum) was 7.6E-13 moles per gram. The “N-docosahexaenoyl alanine mean level” value (PND 35 striatum) was 3E-12 moles per gram, the “N-docosahexaenoyl ethanolamine mean level” value (PND 35 striatum) was 1.6E-11 moles per gram and the “N-docosahexaenoyl glycine mean level” value (PND 35 striatum) was 1.04E-11 moles per gram. For the same compound, the “N-docosahexaenoyl leucine mean level” value (PND 35 striatum) was 5.34E-13 moles per gram, the “N-docosahexaenoyl phenylalanine mean level” value (PND 35 striatum) was 5.57E-13 moles per gram and the “N-docosahexaenoyl serine mean level” value (PND 35 striatum) was 9.97E-12 moles per gram. For the same compound, the “N-linoleoyl alanine mean level” value (PND 35 striatum) was 1.57E-12 moles per gram, the “N-linoleoyl ethanolamine mean level” value (PND 35 striatum) was 3.02E-11 moles per gram and the “N-linoleoyl glycine mean level” value (PND 35 striatum) was 1.9E-12 moles per gram. For the same compound, the “N-linoleoyl serine mean level” value (PND 35 striatum) was 4.58E-11 moles per gram, the “N-oleoyl GABA mean level” value (PND 35 striatum) was 1.45E-12 moles per gram and the “N-oleoyl alanine mean level” value (PND 35 striatum) was 6.67E-12 moles per gram. For the same compound, the “N-oleoyl ethanolamine mean level” value (PND 35 striatum) was 6.1E-11 moles per gram, the “N-oleoyl glycine mean level” value (PND 35 striatum) was 1.1E-11 moles per gram and the “N-oleoyl leucine mean level” value (PND 35 striatum) was 1.08E-12 moles per gram. The “N-oleoyl methionine mean level” value (PND 35 striatum) was 9.72E-13 moles per gram, the “N-oleoyl phenylalanine mean level” value (PND 35 striatum) was 6.72E-13 moles per gram and the “N-oleoyl serine mean level” value (PND 35 striatum) was 2.35E-10 moles per gram. The “N-oleoyl tyrosine mean level” value (PND 35 striatum) was 1.91E-13 moles per gram, the “N-oleoyl valine mean level” value (PND 35 striatum) was 3.53E-13 moles per gram and the “N-palmitoyl GABA mean level” value (PND 35 striatum) was 3.96E-12 moles per gram. For the same compound, the “N-palmitoyl alanine mean level” value (PND 35 striatum) was 1.47E-11 moles per gram, the “N-palmitoyl ethanolamine mean level” value (PND 35 striatum) was 3.18E-11 moles per gram and the “N-palmitoyl glycine mean level” value (PND 35 striatum) was 2.93E-11 moles per gram. The “N-palmitoyl leucine mean level” value (PND 35 striatum) was 2.54E-12 moles per gram, the “N-palmitoyl methionine mean level” value (PND 35 striatum) was 1.86E-12 moles per gram and the “N-palmitoyl phenylalanine mean level” value (PND 35 striatum) was 1.48E-12 moles per gram. The “N-palmitoyl proline mean level” value (PND 35 striatum) was 1.03E-12 moles per gram, the “N-palmitoyl serine mean level” value (PND 35 striatum) was 3.33E-11 moles per gram and the “N-palmitoyl tryptophan mean level” value (PND 35 striatum) was 2.09E-13 moles per gram. For the same compound, the “N-palmitoyl tyrosine mean level” value (PND 35 striatum) was 3.84E-13 moles per gram, the “N-palmitoyl valine mean level” value (PND 35 striatum) was 9.76E-13 moles per gram and the “N-stearoyl GABA mean level” value (PND 35 striatum) was 3.5E-12 moles per gram. The “N-stearoyl alanine mean level” value (PND 35 striatum) was 1.12E-11 moles per gram, the “N-stearoyl ethanolamine mean level” value (PND 35 striatum) was 9E-12 moles per gram and the “N-stearoyl glycine mean level” value (PND 35 striatum) was 1.64E-11 moles per gram.
